Converted amounts (≈) assume the structure as drawn. The source made the active and inactive calls. The rule behind the calls is not given here.
Key:
Staphylococcus aureus [1] = assay: Bactericidal activity against methicillin-resistant Staphylococcus aureus AW6 infected in in vitro rat fibrin clot model assessed as reduction in bacterial colony at 40 ug/ml after 48 hrs; format: functional, organism-based
Staphylococcus aureus [2] = assay: Bactericidal activity against thymidine kinase-deficient methicillin-resistant Staphylococcus aureus AH1252 infected in in vitro rat fibrin clot model assessed as reduction in bacterial colony at 40 ug/ml after 48 hrs; format: functional, organism-based
Staphylococcus aureus [3] = assay: Bacteriostatic activity against methicillin-resistant Staphylococcus aureus AW6 infected in in vitro human fibrin clot model assessed as reduction in bacterial colony at 40 ug/ml after 24 hrs; format: functional, organism-based
Staphylococcus aureus [4] = assay: Bactericidal activity against thymidine kinase-deficient methicillin-resistant Staphylococcus aureus AH1252 infected in in vitro rat fibrin clot model assessed as reduction in bacterial colony at 40 ug/ml after 24 hrs; format: functional, organism-based
Staphylococcus aureus [5] = assay: Bactericidal activity against methicillin-resistant Staphylococcus aureus AW6 at 40 ug/ml by time kill analysis in presence of 50% rat serum; format: functional, organism-based
Staphylococcus aureus [6] = assay: Bactericidal activity against methicillin-resistant Staphylococcus aureus AW6 at 40 ug/ml by time kill analysis in presence of 50% human serum; format: functional, organism-based
Staphylococcus aureus [7] = assay: Bactericidal activity against thymidine kinase-deficient methicillin-resistant Staphylococcus aureus AH1252 at 40 ug/ml by time kill analysis in presence of 50% rat serum; format: functional, organism-based
Staphylococcus aureus [8] = assay: Bactericidal activity against thymidine kinase-deficient methicillin-resistant Staphylococcus aureus AH1252 at 40 ug/ml by time kill analysis in presence of 50% human serum; format: functional, organism-based
Staphylococcus aureus [9] = assay: Bactericidal activity against thymidine kinase-deficient methicillin-resistant Staphylococcus aureus AH1252 infected in in vitro rat fibrin clot model assessed as reduction in bacterial colony at 3.5 ug/ml after 48 hrs; format: functional, organism-based
Staphylococcus aureus [10] = assay: Bactericidal activity against methicillin-resistant Staphylococcus aureus AW6 infected in in vitro human fibrin clot model assessed as log reduction in bacterial colony at 3.5 ug/ml after 24 hrs; format: functional
Staphylococcus aureus [11] = assay: Bactericidal activity against thymidine kinase-deficient methicillin-resistant Staphylococcus aureus AH1252 infected in in vitro human fibrin clot model assessed as log reduction in bacterial colony at 3.5 ug/ml after 24 hrs; format: functional
[12] = Plasma protein binding in human; format: ADME, cell-free; conditions: read-out: PPB (converted)
Staphylococcus aureus [13] = assay: Bactericidal activity against methicillin-resistant Staphylococcus aureus AW6 at 3.5 ug/ml by time kill analysis in presence of 50% human serum and 1 ug/ml thymidine; format: functional, organism-based
Staphylococcus aureus [14] = assay: Antimicrobial activity against thymidine kinase-deficient methicillin-resistant Staphylococcus aureus AH1252 grown on CAMHB media after 24 hrs by broth microdilution method in presence of 50% human serum and 1 ug/ml thymidine; format: functional; conditions: AH1252, 24 h
Staphylococcus aureus [15] = assay: Bactericidal activity against methicillin-resistant Staphylococcus aureus AW6 at 3.5 ug/ml by time kill analysis in presence of 50% rat serum and 1 ug/ml thymidine; format: functional, organism-based
Staphylococcus aureus [16] = assay: Antimicrobial activity against methicillin-resistant Staphylococcus aureus AW6 grown on CAMHB media after 24 hrs by broth microdilution method; format: functional; conditions: AW6, 24 h
Staphylococcus aureus [17] = assay: Antimicrobial activity against methicillin-resistant Staphylococcus aureus AW6 grown on CAMHB media after 24 hrs by broth microdilution method in presence of 0.2 U/ml thymidine phosphorylase; format: functional; conditions: AW6, 24 h
Staphylococcus aureus [18] = assay: Antimicrobial activity against methicillin-resistant Staphylococcus aureus AW6 grown on CAMHB media after 24 hrs by broth microdilution method in presence of 50% rat serum; format: functional; conditions: AW6, 24 h
Staphylococcus aureus [19] = assay: Antimicrobial activity against methicillin-resistant Staphylococcus aureus AW6 grown on CAMHB media after 24 hrs by broth microdilution method in presence of 50% rat serum and 0.2 U/ml thymidine phosphorylase; format: functional; conditions: AW6, 24 h
Staphylococcus aureus [20] = assay: Antimicrobial activity against methicillin-resistant Staphylococcus aureus AW6 grown on CAMHB media after 24 hrs by broth microdilution method in presence of protein depleted rat serum; format: functional; conditions: AW6, 24 h
Staphylococcus aureus [21] = assay: Antimicrobial activity against methicillin-resistant Staphylococcus aureus AW6 grown on CAMHB media after 24 hrs by broth microdilution method in presence of 50% human serum; format: functional; conditions: AW6, 24 h
Staphylococcus aureus [22] = assay: Antimicrobial activity against methicillin-resistant Staphylococcus aureus AW6 grown on CAMHB media after 24 hrs by broth microdilution method in presence of 50% human serum and 0.2 U/ml thymidine phosphorylase; format: functional; conditions: AW6, 24 h
Staphylococcus aureus [23] = assay: Antimicrobial activity against methicillin-resistant Staphylococcus aureus AW6 grown on CAMHB media after 24 hrs by broth microdilution method in presence of protein depleted human serum; format: functional; conditions: AW6, 24 h
Staphylococcus aureus [24] = assay: Antimicrobial activity against thymidine kinase-deficient methicillin-resistant Staphylococcus aureus AH1252 grown on CAMHB media after 24 hrs by broth microdilution method; format: functional; conditions: AH1252, 24 h
Staphylococcus aureus [25] = assay: Antimicrobial activity against thymidine kinase-deficient methicillin-resistant Staphylococcus aureus AH1252 grown on CAMHB media after 24 hrs by broth microdilution method in presence of 0.2 U/ml thymidine phosphorylase; format: functional; conditions: AH1252, 24 h
Staphylococcus aureus [26] = assay: Antimicrobial activity against thymidine kinase-deficient methicillin-resistant Staphylococcus aureus AH1252 grown on CAMHB media after 24 hrs by broth microdilution method in presence of 50% rat serum; format: functional; conditions: AH1252, 24 h
Staphylococcus aureus [27] = assay: Antimicrobial activity against thymidine kinase-deficient methicillin-resistant Staphylococcus aureus AH1252 grown on CAMHB media after 24 hrs by broth microdilution method in presence of 50% rat serum and 0.2 U/ml thymidine phosphorylase; format: functional; conditions: AH1252, 24 h
Staphylococcus aureus [28] = assay: Antimicrobial activity against thymidine kinase-deficient methicillin-resistant Staphylococcus aureus AH1252 grown on CAMHB media after 24 hrs by broth microdilution method in presence of protein depleted rat serum; format: functional; conditions: AH1252, 24 h
Staphylococcus aureus [29] = assay: Antimicrobial activity against thymidine kinase-deficient methicillin-resistant Staphylococcus aureus AH1252 grown on CAMHB media after 24 hrs by broth microdilution method in presence of 50% human serum; format: functional; conditions: AH1252, 24 h
Staphylococcus aureus [30] = assay: Antimicrobial activity against thymidine kinase-deficient methicillin-resistant Staphylococcus aureus AH1252 grown on CAMHB media after 24 hrs by broth microdilution method in presence of 50% human serum and 0.2 U/ml thymidine phosphorylase; format: functional; conditions: AH1252, 24 h
Staphylococcus aureus [31] = assay: Antimicrobial activity against thymidine kinase-deficient methicillin-resistant Staphylococcus aureus AH1252 grown on CAMHB media after 24 hrs by broth microdilution method in presence of protein depleted human serum; format: functional; conditions: AH1252, 24 h
[32] = Protein binding in human serum; format: ADME, cell-free; conditions: read-out: PB (converted)
[33] = Protein binding in rat serum; format: ADME, cell-free; conditions: read-out: PB (converted)
Staphylococcus aureus [34] = assay: Antimicrobial activity against methicillin-resistant Staphylococcus aureus AW6 grown on CAMHB media after 24 hrs by broth microdilution method in presence of 50% human serum and 1 ug/ml thymidine; format: functional; conditions: AW6, 24 h
Staphylococcus aureus [35] = assay: […] activity against methicillin-resistant Staphylococcus aureus AW6 assessed as loss of bacterial cell viability at 3.5 ug/ml by time kill analysis in presence of 50% rat serum; format: functional
Staphylococcus aureus [36] = assay: Bactericidal activity against thymidine kinase-deficient methicillin-resistant Staphylococcus aureus AH1252 assessed as loss of bacterial cell viability at 3.5 ug/ml by time kill analysis in presence of 50% rat serum; format: functional, organism-based
Staphylococcus aureus [37] = assay: […] activity against methicillin-resistant Staphylococcus aureus AW6 assessed as loss of bacterial cell viability at 3.5 ug/ml measured within 8 hrs by time kill analysis in presence of 50% human serum; format: functional
Staphylococcus aureus [38] = assay: Bactericidal activity against thymidine kinase-deficient methicillin-resistant Staphylococcus aureus AH1252 assessed as loss of bacterial cell viability at 3.5 ug/ml measured within 8 hrs by time kill analysis in presence of 50% human serum; format: functional
Staphylococcus aureus [39] = assay: Bactericidal activity against methicillin-resistant Staphylococcus aureus AW6 at 3.5 ug/ml by time kill analysis in presence of 50% rat serum and 0.2 U/ml thymidine phosphorylase; format: functional, organism-based
Staphylococcus aureus [40] = assay: Bacteriostatic activity against methicillin-resistant Staphylococcus aureus AW6 infected in in vitro rat fibrin clot model assessed as reduction in bacterial colony at 3.5 ug/ml after 48 hrs; format: functional, organism-based

SMILES: CN[C@H](CC(C)C)C(=O)N[C@H]1C(=O)N[C@@H](CC(N)=O)C(=O)N[C@H]2C(=O)N[C@H]3C(=O)N[C@H](C(=O)N[C@H](C(=O)O)c4cc(O)cc(O)c4-c4cc3ccc4O)[C@H](O)c3ccc(c(Cl)c3)Oc3cc2cc(c3O[C@@H]2O[C@H](CO)[C@@H](O)[C@H](O)[C@H]2O[C@H]2C[C@](C)(N)[C@H](O)[C@H](C)O2)Oc2ccc(cc2Cl)[C@H]1O
- Activity (Staphylococcus aureus [1]): Active
- Activity (Staphylococcus aureus [2]): Active
- Activity (Staphylococcus aureus [3]): Active
- Activity (Staphylococcus aureus [4]): Active
- Activity (Staphylococcus aureus [5]): Active
- Activity (Staphylococcus aureus [6]): Active
- Activity (Staphylococcus aureus [7]): Active
- Activity (Staphylococcus aureus [8]): Active

SMILES: COc1cc(Cc2cnc(N)nc2N)c2c(c1OC)OC(C1CC1)C=C2 (stereo not given) [ICLAPRIM]
- Activity (Staphylococcus aureus [9]): Active
- log10CFU/ml (Staphylococcus aureus [10]): >=3
- log10CFU/ml (Staphylococcus aureus [11]): >=3
- fraction unbound [12]: 0.07
- Activity (Staphylococcus aureus [13]): inactive
- MIC (Staphylococcus aureus [14]): 0.03 µg/mL
- Activity (Staphylococcus aureus [15]): inactive
- MIC (Staphylococcus aureus [16]): 0.06 µg/mL (≈ 0.169 µM)
- MIC (Staphylococcus aureus [17]): 0.03 µg/mL
- MIC (Staphylococcus aureus [18]): > 2 µg/mL
- MIC (Staphylococcus aureus [19]): 0.06 µg/mL
- MIC (Staphylococcus aureus [20]): > 2 µg/mL
- MIC (Staphylococcus aureus [21]): 0.12 µg/mL
- MIC (Staphylococcus aureus [22]): 0.2 µg/mL
- MIC (Staphylococcus aureus [23]): 0.03 µg/mL
- MIC (Staphylococcus aureus [24]): 0.03 µg/mL (≈ 0.0846 µM)
- MIC (Staphylococcus aureus [25]): 0.03 µg/mL
- MIC (Staphylococcus aureus [26]): 0.03 µg/mL
- MIC (Staphylococcus aureus [27]): 0.03 µg/mL
- MIC (Staphylococcus aureus [28]): 0.06 µg/mL
- MIC (Staphylococcus aureus [29]): 0.06 µg/mL
- MIC (Staphylococcus aureus [30]): 0.06 µg/mL
- MIC (Staphylococcus aureus [31]): 0.03 µg/mL
- fraction unbound [32]: 0.05
- fraction unbound [33]: 0.1
- MIC (Staphylococcus aureus [34]): > 2 µg/mL
- log10CFU/ml (Staphylococcus aureus [35]): >=3
- Activity (Staphylococcus aureus [36]): Active
- log10CFU/ml (Staphylococcus aureus [37]): >=3
- log10CFU/ml (Staphylococcus aureus [38]): >=3
- Activity (Staphylococcus aureus [39]): Active
- Activity (Staphylococcus aureus [40]): Active
